Reference: PubChem BioAssay (NCI)
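Exposure lasted 48 hours, with cells grown in 96-well plates and compounds tested at five concentrations. TGI denotes the concentration required for complete inhibition of growth.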

Legend:
Assay in all cases: inhibition of tumour cell growth, NCI panel, 48 h
[1] = tested on: U251 CNS
[2] = tested on: ACHN renal
[3] = tested on: SR leukemia
[4] = tested on: KM12 colon
[5] = tested on: HL-60(TB) leukemia
[6] = tested on: SNB-19 CNS
[7] = tested on: BT-549 breast
[8] = tested on: DU-145 prostate
[9] = tested on: TK-10 renal
[10] = tested on: SNB-75 CNS
[11] = tested on: SK-MEL-5 melanoma
[12] = tested on: SF-539 CNS
[13] = tested on: M14 melanoma
[14] = tested on: HS 578T breast
[15] = tested on: HCT-116 colon
[16] = tested on: MDA-N
[17] = tested on: COLO 205 colon
[18] = tested on: SN12C renal
[19] = tested on: EKVX NSCLC
[20] = tested on: SW-620 colon
[21] = tested on: UACC-62 melanoma
[22] = tested on: IGROV1 ovarian
[23] = tested on: UACC-257 melanoma
[24] = tested on: OVCAR-5 ovarian
[25] = tested on: SF-295 CNS
[26] = tested on: HOP-62 NSCLC
[27] = tested on: OVCAR-3 ovarian
[28] = tested on: MOLT-4 leukemia
[29] = tested on: 786-0 renal
[30] = tested on: RXF 393 renal
[31] = tested on: A549 NSCLC
[32] = tested on: MDA-MB-231 breast
[33] = tested on: NCI-H522 lung
[34] = tested on: SK-MEL-2 melanoma
[35] = tested on: PC-3 prostate
[36] = tested on: UO-31 renal
[37] = tested on: T-47D breast
[38] = tested on: NCI-H460 lung
[39] = tested on: MCF7 breast
[40] = tested on: CAKI-1 renal
[41] = tested on: NCI-H23 lung
[42] = tested on: HOP-92 NSCLC
[43] = tested on: OVCAR-4 ovarian
[44] = tested on: NCI-H226 lung
[45] = tested on: RPMI-8226 leukemia
[46] = tested on: A498 renal
[47] = tested on: LOX IMVI melanoma
[48] = tested on: K-562 leukemia
[49] = tested on: NCI/ADR-RES ovarian
[50] = tested on: SK-MEL-28 melanoma
[51] = tested on: SF-268 CNS
[52] = tested on: HT29 colon
[53] = tested on: MALME-3M melanoma
[54] = tested on: OVCAR-8 ovarian
[55] = tested on: HCT-15 colon
[56] = tested on: HCC-2998 colon
[57] = tested on: CCRF-CEM leukemia
[58] = tested on: SK-OV-3 ovarian

`O=C(O)CCC[C@]1(O)O[C@@]2(CCCC2=O)[C@]2(O)CCC[C@@]21O` was tested, and the TGI [1] was greater than 100 µM, the TGI [2] was greater than 100 µM and the TGI [3] was greater than 100 µM. It also gave a TGI [4] greater than 100 µM, a TGI [5] greater than 100 µM and a TGI [6] greater than 100 µM. It also gave a TGI [7] greater than 100 µM, a TGI [8] greater than 100 µM and a TGI [9] greater than 100 µM. The TGI [10] was greater than 100 µM, the TGI [11] was greater than 100 µM and the TGI [12] was greater than 100 µM. The TGI [13] was greater than 100 µM, the TGI [14] was greater than 100 µM and the TGI [15] was greater than 100 µM. For the same molecule, the TGI [16] was greater than 100 µM, the TGI [17] was greater than 100 µM and the TGI [18] was greater than 100 µM. The TGI [19] was greater than 100 µM, the TGI [20] was greater than 100 µM and the TGI [21] was greater than 100 µM. The TGI [22] was greater than 100 µM, the TGI [23] was greater than 100 µM and the TGI [24] was greater than 100 µM. The TGI [25] was 64.4 µM, the TGI [26] was greater than 100 µM and the TGI [27] was greater than 100 µM. The TGI [28] was greater than 100 µM, the TGI [29] was greater than 100 µM and the TGI [30] was greater than 100 µM. It also gave a TGI [31] greater than 100 µM, a TGI [32] greater than 100 µM and a TGI [33] of 0.228 µM. It also gave a TGI [34] greater than 100 µM, a TGI [35] greater than 100 µM and a TGI [36] greater than 100 µM. It also gave a TGI [37] greater than 100 µM, a TGI [38] greater than 100 µM and a TGI [39] greater than 100 µM. The TGI [40] was greater than 100 µM, the TGI [41] was greater than 100 µM and the TGI [42] was greater than 100 µM. It also gave a TGI [43] greater than 100 µM, a TGI [44] greater than 100 µM and a TGI [45] greater than 100 µM. The TGI [46] was greater than 100 µM, the TGI [47] was greater than 100 µM and the TGI [48] was greater than 100 µM. It also gave a TGI [49] greater than 100 µM, a TGI [50] greater than 100 µM and a TGI [51] greater than 100 µM. The TGI [52] was greater than 100 µM, the TGI [53] was greater than 100 µM and the TGI [54] was greater than 100 µM. For the same molecule, the TGI [55] was greater than 100 µM.

`CS(=O)(=O)c1ccc(NNc2cc(=O)[nH]c(=O)[nH]2)cc1` showed a TGI [1] greater than 100 µM, a TGI [2] greater than 100 µM and a TGI [3] greater than 100 µM. The TGI [4] was greater than 100 µM, the TGI [5] was greater than 100 µM and the TGI [6] was greater than 100 µM. The TGI [7] was greater than 100 µM, the TGI [8] was greater than 100 µM and the TGI [9] was 9.34 µM. The TGI [10] was greater than 100 µM, the TGI [11] was greater than 100 µM and the TGI [12] was greater than 100 µM. The TGI [13] was greater than 100 µM, the TGI [14] was greater than 100 µM and the TGI [15] was greater than 100 µM. It also gave a TGI [16] greater than 100 µM, a TGI [17] greater than 100 µM and a TGI [18] greater than 100 µM. For the same molecule, the TGI [20] was greater than 100 µM, the TGI [21] was greater than 100 µM and the TGI [22] was greater than 100 µM. It also gave a TGI [23] greater than 100 µM, a TGI [24] greater than 100 µM and a TGI [25] greater than 100 µM. For the same molecule, the TGI [26] was greater than 100 µM, the TGI [56] was greater than 100 µM and the TGI [27] was greater than 100 µM. For the same molecule, the TGI [28] was greater than 100 µM, the TGI [29] was greater than 100 µM and the TGI [30] was greater than 100 µM. The TGI [31] was greater than 100 µM, the TGI [32] was greater than 100 µM and the TGI [33] was 40.2 µM. For the same molecule, the TGI [57] was greater than 100 µM, the TGI [34] was greater than 100 µM and the TGI [35] was greater than 100 µM. The TGI [36] was greater than 100 µM, the TGI [37] was greater than 100 µM and the TGI [58] was greater than 100 µM. The TGI [38] was greater than 100 µM, the TGI [41] was greater than 100 µM and the TGI [42] was greater than 100 µM. For the same molecule, the TGI [43] was greater than 100 µM, the TGI [44] was greater than 100 µM and the TGI [45] was greater than 100 µM. It also gave a TGI [46] greater than 100 µM, a TGI [47] greater than 100 µM and a TGI [48] greater than 100 µM. For the same molecule, the TGI [49] was greater than 100 µM, the TGI [50] was greater than 100 µM and the TGI [51] was greater than 100 µM. For the same molecule, the TGI [52] was greater than 100 µM, the TGI [53] was greater than 100 µM and the TGI [55] was greater than 100 µM.

`CC(=O)O[C@H]1C(=O)[C@@]2(C)[C@H]([C@H](OC(=O)C3CCCCC3)[C@]3(O)C[C@H](OC(=O)[C@H](O)[C@@H](NC(=O)OC(C)(C)C)c4ccccc4)C(C)=C1C3(C)C)[C@]1(OC(C)=O)CO[C@@H]1C[C@@H]2O` was tested, and the TGI [1] was greater than 12.5 µM, the TGI [2] was greater than 12.5 µM and the TGI [3] was greater than 12.5 µM. The TGI [4] was greater than 12.5 µM, the TGI [5] was 0.00365 µM and the TGI [6] was greater than 12.5 µM. It also gave a TGI [7] of 0.46 µM, a TGI [9] greater than 10.1 µM and a TGI [10] greater than 12.5 µM. It also gave a TGI [11] greater than 3.99 µM, a TGI [12] of 0.0571 µM and a TGI [13] of 0.117 µM. The TGI [14] was 0.741 µM, the TGI [15] was greater than 4.97 µM and the TGI [16] was 0.0173 µM. For the same molecule, the TGI [17] was 0.144 µM, the TGI [18] was greater than 11.5 µM and the TGI [19] was greater than 12.5 µM. It also gave a TGI [20] greater than 12.5 µM, a TGI [21] greater than 2.47 µM and a TGI [22] greater than 12.5 µM. The TGI [23] was greater than 12.5 µM, the TGI [24] was 0.0701 µM and the TGI [25] was 0.165 µM. For the same molecule, the TGI [56] was 0.248 µM, the TGI [27] was 0.019 µM and the TGI [28] was 0.337 µM. It also gave a TGI [29] greater than 7.61 µM, a TGI [30] of 2.15 µM and a TGI [31] greater than 12.5 µM. The TGI [32] was greater than 6.31 µM, the TGI [33] was 0.22 µM and the TGI [57] was greater than 8.82 µM. It also gave a TGI [34] of 5.15 µM, a TGI [35] greater than 12.5 µM and a TGI [36] greater than 12.5 µM. For the same molecule, the TGI [37] was greater than 12.5 µM, the TGI [58] was greater than 12.5 µM and the TGI [38] was greater than 5.2 µM. It also gave a TGI [39] of 0.0879 µM, a TGI [40] greater than 12.5 µM and a TGI [41] greater than 9.76 µM. The TGI [42] was 0.575 µM, the TGI [43] was greater than 12.5 µM and the TGI [44] was greater than 12.5 µM. It also gave a TGI [45] of 0.432 µM, a TGI [47] greater than 11.9 µM and a TGI [48] greater than 12.5 µM. It also gave a TGI [49] greater than 5.94 µM, a TGI [50] greater than 9.82 µM and a TGI [51] greater than 12.5 µM. The TGI [52] was greater than 6.33 µM, the TGI [53] was 5.07 µM and the TGI [54] was greater than 12.5 µM. The TGI [55] was greater than 12.5 µM.
